The nature of data set [1]: Relative partition coefficients between 0.1M phosphate buffer, pH 7.0 and 1-octanol. It is filed as physicochemical. Particulars: for logD: phosphate buffer / 1-octanol.
A further data set relates to CCRF-CEM cells. Description: Cytostatic activity (growth inhibition) of CCRF-CEM cells in culture. The following applies: Homo sapiens, 96 h. Format: cell-based. The procedure: Cell culture and cytostatic activity (growth inhibition): The human T-cell line CCRF-CEM was obtained from J. S. Holcenberg, Childrens Hospital of Los Angeles. Maintenance of cultures in RPMI 1640 medium and growth inhibition assays were carried out as previously described^24 except that iron-supplemented bovine calf serum was used routinely in place of dialyzed fetal bovine serum and inhibition of cell growth was based on the culture densities after four days without dilution of the cultures. […] Culture densities were also determined after three days to check that the cell growth continued in cultures without cytotoxic agents.
CCRF- CEM cells were a gift from Dr. John Holcenberg and were grown in suspension as previously described.

A short description of data set [2]: Hydrolysis of the alkoxy derivatives to FdU in aqueous solution. Format: physicochemical. The following applies: for conversion to FdU in aqueous solution / dependence of hydrolysis rate on hydroxide concentration: in words; for dependence of hydrolysis rate on hydroxide concentration: data not shown; for half-life at 150 µM: pH 11, 25°, 1.5×10^-4 M in unbuffered deionized water adjusted with NaOH or HCl, read-out: conversion half life (4→1) (converted). Here is the method:
In aqueous solution, the 4-alkoxy derivatives (4) are converted to FdU (1). […] The reaction is both acid and base catalyzed. At pH 11, the half lives for the conversion are 3.3 and 12.5 hours, respectively for the methoxy (4a) and ethoxy (4b) derivatives.
Hydrolysis of the alkoxy derivatives (4a and 4b) Solutions of 4-methoxy (4a) and 4-ethoxy,5-fluoro, 2'-deoxyuridine (4b) (1.5×10^-4 M) were prepared in unbuffered, deionized water. The pH of the solutions was adjusted with the addition of 1N NaOH or 1N HCl. […] The UV spectrum obtained upon completion of the hydrolysis in both with both compounds 4a and 4b are indistinguishable from FdU^9. […] (data not shown).

The test system of data set [3] is plasma thymidine phosphorylase. Particulars: in words; cited from earlier work.
The conditions of data set [4]: AZT over dT; cited from earlier work.
Data set [5] relates to human erythrocytes and lymphocytes. Particulars: in words; cited from earlier work.
A further data set deals with thymidylate synthase. Particulars: via kinase and deamination to FdUMP; in words; cited from earlier work.
For a further data set, the system named is cellular DNA. The following applies: cited from earlier work.
A further data set relates to DNA 5-methylcytosine. The following applies: in words; cited from earlier work.
Where [6] appears, read: 0.1M phosphate buffer, pH 7.0 / 1-octanol, read-out: relative partition coefficient (converted).
Where [7] appears, read: CCRF-CEM growth inhibition, four days, triplicate wells, read-out: EC50.

This is an account of results in patent US5530110A, “4-ethoxy-5-fluoro-2'-deoxyuridine” (City of Hope, priority 1994, dated 1996).

Like-named read-outs stand apart in the source and are kept apart here.

For orientation: EC50 means the concentration needed to bring the measured effect to its halfway point. By half-life is commonly meant the time in which the quantity being followed falls by half.

Take `CCOc1nc(=O)n([C@H]2C[C@H](O)[C@@H](CO)O2)cc1F` [4-ethoxyFdU (4b), 4-Ethoxy, 5-fluoro, 2'-deoxyuridine]: the “lipophilicity relative to FdU” value in data set [1] (pH 7) is recorded as 14.7 fold. Besides, the logD in data set [1] (setting [6]) was -0.108. Also, in the data set with CCRF-CEM cells (setting [7]), the EC50 stood at 1.8 µM. In addition, in data set [2], the “conversion to FdU in aqueous solution” value was “converted quantitatively to FdU in aqueous solution”, the “dependence of hydrolysis rate on hydroxide concentration” value was “proportional to [^- OH]” and the half-life at 150 µM was 12.5 h. The half-life in data set [2] (water, pH 11, aqueous solution, read-out: half life for the conversion to FdU (converted)) is 12.5 h.
Regarding `COc1nc(=O)n([C@H]2C[C@H](O)[C@@H](CO)O2)cc1F` [4-methoxyFdU (4a), 4-Methoxy, 5-fluoro, 2'-deoxyuridine], the “lipophilicity relative to FdU” value in data set [1] (pH 7) is 4.5 fold. Further, the logD in data set [1] (setting [6]) is -0.62. Besides, the EC50 with CCRF-CEM cells (setting [7]) came out at 1.8 µM. In [2], the “conversion to FdU in aqueous solution” value is reported as “converted quantitatively to FdU in aqueous solution”, the “dependence of hydrolysis rate on hydroxide concentration” value was “proportional to [^- OH]” and the half-life at 150 µM is 2.2 h. For the same compound, the “catabolism via plasma thymidine phosphorylase” value in data set [3] was “neither deoxycytidine derivatives^25 nor 4-methoxy-5-fluoro-2'deoxyuridine^26 are catabolized via this pathway”.
On to `Cc1cn([C@H]2C[C@H](N=[N+]=[N-])[C@@H](CO)O2)c(=O)[nH]c1=O` [AZT], for which, in [4], the “increased lipophilicity over dT” value is listed as 20 fold. Further, the cell entry result in [5] was “can enter human erythrocytes and lymphocytes by nonfacilitated diffusion”.
Turning to `Nc1nc(=O)n([C@H]2C[C@H](O)[C@@H](CO)O2)cc1F` [FdC (5), 5-Fluoro, 2'-deoxycytidine], in data set [1] (setting [6]), the logD was -1.55. In addition, the “inhibition of thymidylate synthase” value in the data set on thymidylate synthase is on record as “inhibition of thymidylate synthase”. In addition, the EC50 with CCRF-CEM cells (setting [7]) was 0.0069 µM. For the same compound, the “relation of DNA incorporation to cytotoxicity” value in the data set on cellular DNA is listed as “level of FdC incorporation is proportional to cytotoxicity”. Moreover, the “decrease in DNA 5-methylcytosine levels” value in the data set with DNA 5-methylcytosine was “dramatic decreases in DNA 5-methylcytosinelevels”.
Turning to `O=c1[nH]c(=O)n([C@H]2C[C@H](O)[C@@H](CO)O2)cc1F` [FdU (1), reference compound], in [1] (pH 7), the logD was -1.28. Moreover, in the data set on CCRF-CEM cells (setting [7]), the EC50 amounted to 0.0089 µM. Besides, in data set [3], the “catabolism via plasma thymidine phosphorylase” value is recorded as “cleavage via plasma thymidine phosphorylase”.
Compound `O=c1[nH]cc(F)c(=O)[nH]1` [fluorouracil, 5-fluorouracil, reference compound] gave an EC50 in the data set with CCRF-CEM cells (CCRF-CEM) of 5 µM.
